Measured values from ChEMBL document CHEMBL1136711, “Synthesis and SAR of bicyclic heteroaryl hydroxamic acid MMP and TACE inhibitors” (Bioorg Med Chem Lett, 2003).

How the values were obtained:
[1] = system: THP-1; assay: In vitro inhibition of TNF-alpha release at a concentration of 3 uM by using THP cellular assay; type: functional, cell-based; conditions: Homo sapiens
[2] = target: Matrix metalloproteinase-9 (Homo sapiens, UniProt P14780); assay: Inhibitory activity against matrix metalloprotease 9 (MMP-9).
[3] = target: Disintegrin and metalloproteinase domain-containing protein 17 (Homo sapiens, UniProt P78536); assay: Inhibitory activity against TACE.
[4] = target: Collagenase 3 (Homo sapiens, UniProt P45452); assay: Inhibitory activity against matrix metalloprotease 13 (MMP-13).
[5] = target: T1, Interstitial collagenase (Homo sapiens, UniProt P03956); assay: Inhibitory activity against matrix metalloprotease 1 (MMP-1).
T1 sequence (P03956 whole entry): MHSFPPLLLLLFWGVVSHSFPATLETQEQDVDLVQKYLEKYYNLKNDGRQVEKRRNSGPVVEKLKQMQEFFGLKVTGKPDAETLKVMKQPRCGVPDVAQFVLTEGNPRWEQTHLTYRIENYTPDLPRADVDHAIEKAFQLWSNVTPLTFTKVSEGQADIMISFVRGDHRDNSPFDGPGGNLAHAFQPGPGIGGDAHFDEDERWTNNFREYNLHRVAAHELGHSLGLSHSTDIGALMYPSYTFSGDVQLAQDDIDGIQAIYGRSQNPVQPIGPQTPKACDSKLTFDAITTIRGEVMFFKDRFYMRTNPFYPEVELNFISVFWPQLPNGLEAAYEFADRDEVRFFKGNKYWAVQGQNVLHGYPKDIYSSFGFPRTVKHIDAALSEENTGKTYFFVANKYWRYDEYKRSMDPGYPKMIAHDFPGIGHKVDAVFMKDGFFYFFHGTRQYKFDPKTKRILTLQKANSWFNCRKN

[6] = system: Rattus norvegicus; assay: In vivo inhibition of cartilage degradation at 50 mpk po bid in the rat sponge-wrapped cartilage implant model; type: functional
[7] = organism: Bos taurus; assay: Ex vivo inhibition of cartilage degradation at 100 nM concentration in the bovine articular cartilage explant assay; type: functional; conditions: Cartilage tissue
[8] = system: Mus musculus; assay: In vivo inhibition of MMP-13 at 25 mpk po 1 hr after dosing in the mouse dialysis tubing implant assay; type: functional
[9] = system: Mus musculus; assay: In vivo inhibition of MMP-13 at 50 mpk po 1 hr after dosing in the mouse dialysis tubing implant assay; type: functional

Matrix metalloproteinase-9, sequence (P14780 whole entry, the tested form may be a part): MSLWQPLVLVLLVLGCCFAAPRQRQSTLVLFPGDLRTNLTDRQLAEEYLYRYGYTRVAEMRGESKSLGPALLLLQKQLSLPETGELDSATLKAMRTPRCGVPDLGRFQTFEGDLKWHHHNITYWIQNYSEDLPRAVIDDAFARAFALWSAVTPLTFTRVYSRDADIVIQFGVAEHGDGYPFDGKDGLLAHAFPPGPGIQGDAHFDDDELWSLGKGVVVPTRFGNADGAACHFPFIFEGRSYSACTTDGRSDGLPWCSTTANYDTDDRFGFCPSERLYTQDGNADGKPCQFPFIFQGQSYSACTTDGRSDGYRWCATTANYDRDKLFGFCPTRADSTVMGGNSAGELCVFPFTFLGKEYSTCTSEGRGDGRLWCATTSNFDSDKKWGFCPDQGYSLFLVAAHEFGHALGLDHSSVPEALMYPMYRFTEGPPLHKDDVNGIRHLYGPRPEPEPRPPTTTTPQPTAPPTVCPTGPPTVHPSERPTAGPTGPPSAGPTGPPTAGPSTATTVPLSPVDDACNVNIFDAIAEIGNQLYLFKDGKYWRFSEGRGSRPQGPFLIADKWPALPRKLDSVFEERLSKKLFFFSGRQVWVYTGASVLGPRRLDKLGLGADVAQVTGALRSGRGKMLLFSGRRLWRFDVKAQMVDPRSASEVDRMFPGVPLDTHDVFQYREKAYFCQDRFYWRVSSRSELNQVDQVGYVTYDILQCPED
Disintegrin and metalloproteinase domain-containing protein 17, sequence (P78536 whole entry, the tested form may be a part): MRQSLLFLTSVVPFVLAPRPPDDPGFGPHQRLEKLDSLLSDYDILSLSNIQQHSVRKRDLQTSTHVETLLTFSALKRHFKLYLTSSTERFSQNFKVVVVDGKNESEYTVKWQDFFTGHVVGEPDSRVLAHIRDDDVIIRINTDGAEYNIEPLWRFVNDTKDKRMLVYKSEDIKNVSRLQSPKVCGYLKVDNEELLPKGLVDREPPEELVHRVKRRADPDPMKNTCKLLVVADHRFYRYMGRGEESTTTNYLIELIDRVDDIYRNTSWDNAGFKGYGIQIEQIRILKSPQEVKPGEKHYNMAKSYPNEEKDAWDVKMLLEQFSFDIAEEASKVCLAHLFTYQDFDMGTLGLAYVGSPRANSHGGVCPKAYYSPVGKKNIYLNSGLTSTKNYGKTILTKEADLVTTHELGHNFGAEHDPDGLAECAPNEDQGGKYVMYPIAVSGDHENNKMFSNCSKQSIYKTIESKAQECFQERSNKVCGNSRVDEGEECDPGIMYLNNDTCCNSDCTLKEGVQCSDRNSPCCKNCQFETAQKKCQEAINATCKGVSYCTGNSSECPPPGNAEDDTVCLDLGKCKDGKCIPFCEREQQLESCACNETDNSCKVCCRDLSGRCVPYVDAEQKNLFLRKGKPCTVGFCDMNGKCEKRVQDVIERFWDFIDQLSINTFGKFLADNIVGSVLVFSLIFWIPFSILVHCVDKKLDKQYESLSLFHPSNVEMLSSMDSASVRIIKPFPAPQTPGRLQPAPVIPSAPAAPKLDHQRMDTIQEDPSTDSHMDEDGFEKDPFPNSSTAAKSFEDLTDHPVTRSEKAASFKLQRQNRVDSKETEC

Row | IC50 [2] | IC50 [3] | IC50 [4] | Compound | IC50 [5] | also measured
1 | 11 nM | > 1000 nM | 7 nM | COc1ccc(S(=O)(=O)N(Cc2ccccc2)c2c(C(=O)NO)cnc3ccc(C(F)(F)F)cc23)cc1 |  | 
2 |  | 6 nM |  | CC#CCOc1ccc(S(=O)(=O)N(C)c2c(C(=O)NO)cnc3onc(C)c23)cc1 |  | 
3 | 11 nM | > 1000 nM | 7 nM | COc1ccc(S(=O)(=O)N(Cc2ccccc2)c2c(C(=O)NO)cnc3cc(Br)ccc23)cc1 |  | 
4 | 2 nM |  |  | COc1ccc(S(=O)(=O)N(Cc2cccnc2)c2c(C(=O)NO)cnc3snc(C)c23)cc1 |  | 
5 |  | 296 nM |  | COc1ccc(S(=O)(=O)N(C)c2c(C(=O)NO)cnc3c(Br)cccc23)cc1 |  | 
6 | 595 nM | > 1000 nM | 170 nM | Cc1nn(C)c2ncc(C(=O)NO)c(N(C)S(=O)(=O)c3ccc(F)cc3)c12 | 177 nM | 
7 | 4 nM | 1000 nM | 1 nM | COc1ccc(S(=O)(=O)N(Cc2cccnc2)c2c(C(=O)NO)cnc3cc(C(F)(F)F)ccc23)cc1 |  | 
8 | > 1000 nM | > 1000 nM | > 1000 nM | Cc1ccc(S(=O)(=O)N(Cc2cccnc2)c2c(C(=O)NO)cnc3cc(C(F)(F)F)ccc23)cc1 | > 1000 nM | 
9 | 6 nM | 435 nM | 20 nM | COc1ccc(S(=O)(=O)N(Cc2cccnc2)c2c(C(=O)NO)cnc3c2cnn3-c2ccccc2)cc1 |  | 

Further lines, the molecule ahead of its results:

Row | Compound | IC50 [2] | IC50 [3] | IC50 [4] | IC50 [5] | also measured
10 | CC#CCOc1ccc(S(=O)(=O)N(C)c2c(C(=O)NO)cnc3c(Br)cccc23)cc1 |  |  |  |  | inhibition [1]: 32%
11 | COc1ccc(S(=O)(=O)N(Cc2cccnc2)c2c(C(=O)NO)cnc3c(-c4cccs4)cccc23)cc1 |  |  |  | 136 nM | 
12 | COc1ccc(S(=O)(=O)N(Cc2ccccc2)c2c(C(=O)NO)cnc3ccc(Br)cc23)cc1 | 8 nM | > 1000 nM | 6 nM | 108 nM | 
13 | COc1ccc(S(=O)(=O)N(Cc2cccnc2)c2c(C(=O)NO)cnc3c2c(C)nn3-c2ccccc2)cc1 |  |  |  | 115 nM | 
14 | CC#CCOc1ccc(S(=O)(=O)N(C)c2c(C(=O)NO)cnc3c(OC)cccc23)cc1 |  |  | 9 nM |  | 
15 | COc1ccc(S(=O)(=O)N(Cc2cccnc2)c2c(C(=O)NO)cnc3c(I)cccc23)cc1 | 3 nM | 124 nM | 3 nM |  | 
16 | Cc1nn(C)c2ncc(C(=O)NO)c(N(C)S(=O)(=O)c3ccc(Oc4ccncc4)cc3)c12 | 2 nM | > 100 nM |  |  | inhibition in vivo at 50 mg/kg [6]: 46%; inhibition at 0.1 µM [7]: 61%; inhibition in vivo at 25 mg/kg [8]: 54%
17 | CN(c1c(C(=O)NO)cnc2ccccc12)S(=O)(=O)c1ccc(Oc2ccncc2)cc1 |  | 124 nM | 1 nM | 1010 nM | inhibition in vivo at 50 mg/kg [9]: 90%; inhibition in vivo at 50 mg/kg [6]: 44%; inhibition at 0.1 µM [7]: 42%
18 | Cc1nn(C)c2ncc(C(=O)NO)c(N(C)S(=O)(=O)c3ccc(Oc4ccc(Cl)cc4)cc3)c12 |  | 356 nM |  | 116 nM | 
19 | O=C(NO)c1cnc2cc(C(F)(F)F)ccc2c1N(Cc1cccnc1)S(=O)(=O)c1ccc(-c2ccccc2)cc1 | 1160 nM | 124 nM |  |  | 
20 | CC#CCOc1ccc(S(=O)(=O)N(C)c2c(C(=O)NO)cnc3c2c(C)nn3C)cc1 | 100 nM |  |  |  | 
21 | CCCCOc1ccc(S(=O)(=O)N(C)c2c(C(=O)NO)cnc3c2c(C)nn3C)cc1 | 7 nM | 86 nM | 3 nM | 1920 nM | 
22 | C=Cc1cccc2c(N(C)S(=O)(=O)c3ccc(OC)cc3)c(C(=O)NO)cnc12 | 5 nM | 205 nM | 5 nM | 200 nM | 
